# Measurements from US6683184B2, “Piperazine derivatives and process for the preparation thereof” (Samjin Pharmaceutical Co., Ltd., priority 1999, dated 2004).
# Legend:
# Format in all cases: cell-based
# SKMEL-2 (human melanoma) = assay: In vitro antitumor effect against human tumor cell lines, SRB assay, SKMEL-2; details: SK-MEL-2 cells, 48 hours; for IC50: Homo sapiens, read-out: ED50 SK-MEL-2
# Procedure: (§1) In vitro antitumor effect against human tumor cell lines.
# (§2) a. Human solid tumor cell lines, A549(non-small lung cell), SKMEL-2(melanoma), HCT-15(colon), SKOV-3(ovarian), XF-498(CNS) were cultured at 37° C. in 5% CO2 incubators using RPMI 1640 media containing 10% FBS, while they were transfer-cultured successively once or twice per week. Cell cultures were dissolved in a solution of 0.25% trypsin and 3 mM CDTA PBS(−) and then cells were separated from media which the cells were sticked on.
# (§3) b. 5×10^3˜2×10^4 cells were added into each well of 96-well plate and cultured in 5% CO2 incubator, at 37° C., for 24 hours.
# (§4) c. Each sample drug was dissolved in a little DMSO and diluted with the used medium to a prescribed concentration for experiments, wherein the final concentration of DMSO was controlled below 0.5%.
# (§5) d. Medium of each well cultured for 24 hours as above b. was removed by aspiration. Each 200 μl of drug samples prepared in c. was added into each well and the wells were cultured for 48 hours. Tz(time zero) plates were collected at the point of time drugs were added.
# (§6) e. According to the SRB assay method, cell fixing with TCA, staining with 0.4% SRB solution, washing with 1% acetic acid and elution of dye with 10 mM Tris solution were carried out on Tz plates and culture-ended plates, whereby OD values were measured at 520 nm.
# (§7) a. Time zero(Tz) value was determined with measuring the SRB protein amounts of the Tz plates collected at the point of time drugs were added.
# (§8) b. Control value(C) was determined with the OD values of wells untreated with a drug.
# (§9) c. Drug-treated test value(T) was determined with the OD values of drug-treated wells.
# (§10) d. Effects of drugs were estimated with growth stimulation, net growth inhibition, net killing etc., being calculated from Tz, C and T.
# (§11) e. If T≧Tz, cellular response function was calculated by 100×(T−Tz)/(C−Tz), and if T<Tz, by 100×(T−Tz)/Tz.
# XF 498 (human CNS) = assay: In vitro antitumor effect against human tumor cell lines, SRB assay, XF 498; details: 48 hours; for IC50: Homo sapiens, XF498, XF-498 cells, read-out: ED50 XF-498; for ED50 XF-498: XF-498 cells
# Procedure: as §1, §2, §3, §4, §5, §6, §7, §8, §9, §10, §11
# SKOV-3 (human ovarian) = assay: In vitro antitumor effect against human tumor cell lines, SRB assay, SKOV-3; details: SK-OV-3 cells, 48 hours; for IC50: Homo sapiens, read-out: ED50 SK-OV-3
# Procedure: as §1, §2, §3, §4, §5, §6, §7, §8, §9, §10, §11
# [1] = tested on: A549 (human non-small lung cell); assay: In vitro antitumor effect against human tumor cell lines, SRB assay, A549; details: A549 cells, 48 hours; for IC50: Homo sapiens, read-out: ED50 A 549
# Procedure: as §1, §2, §3, §4, §5, §6, §7, §8, §9, §10, §11
# HCT-15 (human colon) = assay: In vitro antitumor effect against human tumor cell lines, SRB assay, HCT-15; details: HCT 15 cells, 48 hours; for IC50: Homo sapiens, read-out: ED50 HCT 15
# Procedure: as §1, §2, §3, §4, §5, §6, §7, §8, §9, §10, §11
Structure (SMILES),IC50 (SKMEL-2 (human melanoma)) [ng/mL],IC50 (XF 498 (human CNS)) [ng/mL],IC50 (SKOV-3 (human ovarian)) [ng/mL],IC50 [1] [ng/mL],IC50 (HCT-15 (human colon)) [ng/mL],ED50 SK-MEL-2 (SKMEL-2 (human melanoma)) [ng/mL],ED50 XF-498 (XF 498 (human CNS)) [ng/mL],ED50 SK-OV-3 (SKOV-3 (human ovarian)) [ng/mL],ED50 A 549 [1] [ng/mL],ED50 HCT 15 (HCT-15 (human colon)) [ng/mL]
"COc1cc2ccccc2cc1N(C)C(=O)N1CCN(c2cc(C)cc(C)c2)CC1 [Example 90, 1-[(2-Methoxynaphth-3-yl)-N-methylaminocarbonyl]-4-(3,5-dimethylphenyl)piperazine]",900,680,350,380,200,–,–,–,–,–
"COc1cc2ccccc2cc1NC(=O)N1CCN(c2cc(C)cc(C)c2)CC1 [Example 86, 1-[(2-Methoxynaphth-3-yl)aminocarbonyl]-4-(3,5-dimethylphenyl)piperazine]",30,40,80,40,60,–,–,–,–,–
"COc1nc(C)c(C)cc1N=C(NO)N1CCN(c2cc(CO)cc(CO)c2)CC1 [Example 107, N-Hydroxy-N′-(5,6-dimethyl-2-methoxypyridin-3-yl)-{4-[3,5-bis-(hydroxymethyl)phenyl]piperazin-1-yl}carboxyimidamide]",–,–,–,–,–,5,8,13,32,9
"N.N.[Cl][Pt][Cl] [Cisplatin, reference compound]",–,–,–,–,–,870,770,1320,910,3170
"COc1nc2ccccc2cc1N=C(NO)N1CCN(c2cc(C)cc(C)c2)CC1 [Example 173, N-Hydroxy-N′-(2-methoxyquinolin-3-yl)-[4-(3,5-dimethylphenyl)-piperazin-1-yl]carboxyimidamide]",–,–,–,–,–,150,210,860,400,180
"COc1cc(OC)cc(N2CCN(C(=Nc3cc(C)c(C)cc3OC)NO)CC2)c1 [Example 181, N-Hydroxy-N′-(4,5-dimethyl-2-methoxyphenyl-1-yl)-[4-(3,5-dimethoxyphenyl)piperazin-1-yl]carboxyimidamide]",–,–,–,–,–,110,40,60,130,20
"COc1nc2ccccc2nc1NC(=O)N1CCN(c2ccccc2C(C)C)CC1 [Example 40, 1-[(2-Methoxyquinoxalin-3-yl)aminocarbonyl]-4-(2-isoprop-ylphenyl)piperazine]",370,810,1010,410,390,–,–,–,–,–
"COc1cc(OC)cc(N2CCN(C(=Nc3cc(C)c(C)nc3OC)NO)CC2)c1 [Example 101, N-Hydroxy-N′-(5,6-dimethyl-2-methoxypyridin-3-yl)-[4-(3,5-dimethoxyphenyl)piperazin-1-yl]carboxyimidamide]",–,–,–,–,–,0.3,0.2,0.3,0.3,0.1
"COc1nc2ccccc2nc1NC(=O)N1CCN(c2cccc(Br)c2)CC1 [Example 45, 1-[(2-Methoxyquinoxalin-3-yl)aminocarbonyl]-4-(3-bromop-henyl)piperazine]",–,–,–,–,–,<0.1,0.2,0.2,0.1,0.1
